# In ChEMBL document CHEMBL1151372, “Isoiguesterin, a new antileukemic bisnortriterpene from Salacia madagascariensis” (1981):
# Experiments:
# Format in all cases: functional
# P388 [1] = experiment: In vivo antitumor activity against mouse P388 cells at 1 mg/kg relative to control
# P388 [2] = experiment: In vivo antitumor activity against mouse P388 cells at 0.75 mg/kg relative to control
# KB = experiment: Cytotoxicity against human KB cells; conditions: read-out: ED50 (the source's name)
smiles,measurement,setting,value
C=C1CC[C@]2(C)CC[C@]3(C)C4=CC=C5C(=CC(=O)C(O)=C5C)[C@]4(C)CC[C@@]3(C)[C@@H]2C1 [ISOIGUESTERIN],T/C,P388 [1],147%
same,T/C,P388 [2],125%
same,EC50,KB,0.24 µg/mL
